Results published in the NIST ThermoML archive (doi:10.1021/je900530f).
Numbers after ± are expanded uncertainties.

Details: Liquid

vapor or sublimation pressure (313.15 K) [kPa] | vapor or sublimation pressure (323.15 K) [kPa] | vapor or sublimation pressure (333.15 K) [kPa] | vapor or sublimation pressure (338.15 K) [kPa] | Compound
5.83 ± 0.18 | 10.48 ± 0.24 | 18.2 ± 0.33 |  | CCC(C)O (stereo not given) [butan-2-ol]
37.04 ± 0.55 | 53.91 ± 0.74 | 76.32 ± 1 | 89.92 ± 1.2 | CCCCCC [hexane]
2.13 ± 0.14 | 4.16 ± 0.16 | 7.57 ± 0.2 | 9.99 ± 0.23 | CCCC(C)O (stereo not given) [pentan-2-ol]

Compound | vapor or sublimation pressure (313.15 K) [kPa] | vapor or sublimation pressure (323.15 K) [kPa] | vapor or sublimation pressure (333.15 K) [kPa] | vapor or sublimation pressure (338.15 K) [kPa]
CCC(C)(C)O [2-methylbutan-2-ol] | 5.69 ± 0.24 | 10.41 ± 0.32 | 17.87 ± 0.43 | 22.87 ± 0.51
